Drawing on patent US8399676B2, “Piperidine derivatives” (Hoffman-La Roche Inc., priority 2009, dated 2013), this text covers IC50 for 26 molecules.

Counter-ions that a name gives are not always drawn.

This experiment concerns the target T1, human HSL (Homo sapiens, UniProt Q05469).
T1 construct: generate a full length human HSL ORF with a 3′-His6 tag; His6 (C); made in house; host or cells: High 5 insect cells (baculovirus, pFast-BAC)
T1 sequence (Q05469 1-1076): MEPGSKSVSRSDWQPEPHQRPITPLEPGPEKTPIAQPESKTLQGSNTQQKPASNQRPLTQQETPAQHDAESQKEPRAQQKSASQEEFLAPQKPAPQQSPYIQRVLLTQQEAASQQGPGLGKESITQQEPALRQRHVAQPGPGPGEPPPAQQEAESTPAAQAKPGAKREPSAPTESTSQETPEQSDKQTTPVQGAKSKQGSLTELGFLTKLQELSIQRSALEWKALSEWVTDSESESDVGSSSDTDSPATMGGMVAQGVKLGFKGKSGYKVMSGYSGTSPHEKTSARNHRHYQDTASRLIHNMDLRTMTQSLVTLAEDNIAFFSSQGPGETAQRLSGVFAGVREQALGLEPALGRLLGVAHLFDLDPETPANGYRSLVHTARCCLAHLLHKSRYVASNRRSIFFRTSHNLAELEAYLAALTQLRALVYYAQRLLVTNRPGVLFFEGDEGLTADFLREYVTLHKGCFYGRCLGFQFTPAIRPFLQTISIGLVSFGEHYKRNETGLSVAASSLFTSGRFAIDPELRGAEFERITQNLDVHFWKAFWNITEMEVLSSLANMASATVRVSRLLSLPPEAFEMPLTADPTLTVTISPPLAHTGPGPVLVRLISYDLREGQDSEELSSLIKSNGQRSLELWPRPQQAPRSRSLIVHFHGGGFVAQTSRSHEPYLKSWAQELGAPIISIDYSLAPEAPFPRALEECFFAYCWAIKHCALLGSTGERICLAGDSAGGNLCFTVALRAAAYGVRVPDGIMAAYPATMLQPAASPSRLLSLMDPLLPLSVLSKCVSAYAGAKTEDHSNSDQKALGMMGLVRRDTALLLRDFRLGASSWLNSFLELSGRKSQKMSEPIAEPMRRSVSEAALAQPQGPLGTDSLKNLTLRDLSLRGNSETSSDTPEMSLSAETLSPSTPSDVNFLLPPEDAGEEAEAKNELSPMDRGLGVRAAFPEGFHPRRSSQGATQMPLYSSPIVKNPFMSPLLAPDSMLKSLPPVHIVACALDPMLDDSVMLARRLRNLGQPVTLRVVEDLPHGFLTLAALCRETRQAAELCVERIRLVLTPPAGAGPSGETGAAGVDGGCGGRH
Put plainly: Human Hormone-Sensitive Lipase (HSL) enzyme inhibition assay (colorimetric, DMPT substrate). The class given is biochemical. To be noted: read-out: HSL hum IC50. Summed up: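 Full-length human HSL carrying a C-terminal His6 tag was expressed in High 5 insect cells via baculovirus and purified on Ni-NTA. Compounds from 3-fold DMSO series were mixed with 1.5 mM DMPT substrate suspension in 100 mM MOPS pH 7.2 with 0.2 mg/ml fatty acid-free BSA, then enzyme (15 ug/ml) was added for 20 minutes at 37 °C. Released thiol was detected with DTNB plus SDS/Triton X-100 (15 minutes, room temperature) at 405 nm.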
Consider `CCN(C(=O)C1(O)CCN(S(=O)(=O)c2ccccc2C)CC1)c1ccc(OC(F)(F)F)cc1` [Example 74, 4-Hydroxy-1-(toluene-2-sulfonyl)-piperidine-4-carboxylic acid ethyl-(4-trifluoromethoxy-phenyl)-amide], for which the half-inhibitory concentration (IC50) stood at 880 nM.
The result for `O=C(c1ccc(F)cc1)N1CCC(O)(C(=O)Nc2ccc(OC(F)(F)F)cc2)CC1` [Example 11, 1-(4-Fluoro-benzoyl)-4-hydroxy-piperidine-4-carboxylic acid (4-trifluoromethoxy-phenyl)-amide] reads 550 nM; that for `CC(C)c1ccc(NC(=O)C2(N)CCN(C(=O)Nc3ccc(OC(F)(F)F)cc3)CC2)cc1` [Example 85, 4-Amino-piperidine-1,4-dicarboxylic acid 4-[(4-isopropyl-phenyl)-amide]1-[(4-trifluoromethoxy-phenyl)-amide]; hydrochloride], 120 nM; that for `COc1ccc(S(=O)(=O)N2CCC(O)(C(=O)Nc3ccc(C(C)(C)C)cc3)CC2)cc1` [Example 19, 4-Hydroxy-1-(4-methoxy-benzenesulfonyl)-piperidine-4-carboxylic acid (4-tert-butyl-phenyl)-amide], 170 nM.
With `CC(C)c1ccc(NC(=O)C2(N)CCN(Cc3ccc(F)cc3)CC2)cc1` [Example 121, 4-Amino-1-(4-fluoro-benzyl)-piperidine-4-carboxylic acid (4-isopropyl-phenyl)-amide; hydrochloride] the figure was 160 nM; with `C=Cc1ccc(NC(=O)C2(N)CCN(S(=O)(=O)c3ccccc3Cl)CC2)cc1` [Example 100, 4-Amino-1-(2-chloro-benzenesulfonyl)-piperidine-4-carboxylic acid (4-vinyl-phenyl)-amide], 140 nM; with `CCc1ccc(NC(=O)C2(N)CCN(Cc3ccccc3OC(F)(F)F)CC2)cc1` [Example 156, 4-Amino-1-(2-trifluoromethoxy-benzyl)-piperidine-4-carboxylic acid (4-ethyl-phenyl)-amide], 80 nM.
The result for `NC1(C(=O)Nc2ccc(Cl)cc2)CCN(S(=O)(=O)c2ccccc2Cl)CC1` [Example 95, 4-Amino-1-(2-chloro-benzenesulfonyl)-piperidine-4-carboxylic acid (4-chloro-phenyl)-amide] reads 190 nM; that for `CCc1ccc(NC(=O)C2(N)CCN(S(=O)(=O)c3ccccc3F)CC2)cc1` [Example 134, 4-Amino-1-(2-fluoro-benzenesulfonyl)-piperidine-4-carboxylic acid (4-ethyl-phenyl)-amide], 60 nM.
With `CC(C)CS(=O)(=O)N1CCC(N)(C(=O)Nc2ccc(C(C)C)cc2)CC1` [Example 120, 4-Amino-1-(2-methyl-propane-1-sulfonyl)-piperidine-4-carboxylic acid (4-isopropyl-phenyl)-amide; hydrochloride], the IC50 was 230 nM.
The result for `CCc1ccc(NC(=O)C2(N)CCN(S(=O)(=O)c3ccc(F)cc3Cl)CC2)cc1` [Example 146, 4-Amino-1-(2-chloro-4-fluoro-benzenesulfonyl)-piperidine-4-carboxylic acid (4-ethyl-phenyl)-amide] reads 120 nM; that for `NC1(C(=O)Nc2ccc3c(c2)CCC3)CCN(S(=O)(=O)c2ccccc2Cl)CC1` [Example 99, 4-Amino-1-(2-chloro-benzenesulfonyl)-piperidine-4-carboxylic acid indan-5-ylamide], 60 nM; that for `NC1(C(=O)Nc2ccc(F)cc2)CCN(S(=O)(=O)c2ccccc2Cl)CC1` [Example 94, 4-Amino-1-(2-chloro-benzenesulfonyl)-piperidine-4-carboxylic acid (4-fluoro-phenyl)-amide], 780 nM.
With `CCc1ccc(NC(=O)C2(N)CCN(Cc3ccccc3Cl)CC2)cc1` [Example 154, 4-Amino-1-(2-chloro-benzyl)-piperidine-4-carboxylic acid (4-ethyl-phenyl)-amide] the figure was 110 nM; with `CC(C)c1ccc(NC(=O)C2(N)CCN(Cc3ccccc3OC(F)(F)F)CC2)cc1` [Example 113, 4-Amino-1-(2-trifluoromethoxy-benzyl)-piperidine-4-carboxylic acid (4-isopropyl-phenyl)-amide; hydrochloride], 80 nM; with `CCc1ccc(NC(=O)C2(N)CCN(S(=O)(=O)c3ccc(CC)cc3)CC2)cc1` [Example 140, 4-Amino-1-(4-ethyl-benzenesulfonyl)-piperidine-4-carboxylic acid (4-ethyl-phenyl)-amide], 110 nM.
The result for `CN(C(=O)C1(O)CCN(S(=O)(=O)c2ccccc2Cl)CC1)c1ccc(OC(F)(F)F)cc1` [Example 72, 1-(2-Chloro-benzenesulfonyl)-4-hydroxy-piperidine-4-carboxylic acid methyl-(4-trifluoromethoxy-phenyl)-amide] reads 60 nM; that for `CCc1ccc(NC(=O)C2(N)CCN(S(=O)(=O)c3ccccc3OC)CC2)cc1` [Example 137, 4-Amino-1-(2-methoxy-benzenesulfonyl)-piperidine-4-carboxylic acid (4-ethyl-phenyl)-amide], 140 nM.
For the molecule `CC(C)c1ccc(NC(=O)C2(N)CCN(S(=O)(=O)c3ccc(C(F)(F)F)cc3Cl)CC2)cc1` [Example 131, 4-Amino-1-(2-chloro-4-trifluoromethyl-benzenesulfonyl)-piperidine-4-carboxylic acid (4-isopropyl-phenyl)-amide], the IC50 was 500 nM.
With `CC(C)c1ccc(NC(=O)C2(N)CCN(Cc3ccccc3)CC2)cc1` [Example 122, 4-Amino-1-benzyl-piperidine-4-carboxylic acid (4-isopropyl-phenyl)-amide] the figure was 130 nM.
With `NC1(C(=O)Nc2ccc(OC(F)F)cc2)CCN(S(=O)(=O)c2ccccc2Cl)CC1` [Example 97, 4-Amino-1-(2-chloro-benzenesulfonyl)-piperidine-4-carboxylic acid (4-difluoromethoxy-phenyl)-amide] the figure was 90 nM; with `CC(C)c1ccc(NC(=O)C2(N)CCN(C(=O)c3ccc(C(F)(F)F)nc3)CC2)cc1` [Example 130, 4-Amino-1-(6-trifluoromethyl-pyridine-3-carbonyl)-piperidine-4-carboxylic acid (4-isopropyl-phenyl)-amide], 520 nM; with `COc1ccc(S(=O)(=O)N2CCC(O)(C(=O)Nc3ccc(C(C)C)cc3)CC2)cc1` [Example 8, 4-Hydroxy-1-(4-methoxy-benzenesulfonyl)-piperidine-4-carboxylic acid (4-isopropyl-phenyl)-amide], 200 nM.
As to `CC(C)c1ccc(NC(=O)C2(N)CCN(C(=O)c3ccccc3Cl)CC2)cc1` [Example 124, 4-Amino-1-(2-chloro-benzoyl)-piperidine-4-carboxylic acid (4-isopropyl-phenyl)-amide], the IC50 amounted to 230 nM.
With `O=C(Nc1ccc(OC(F)(F)F)cc1)C1(O)CCN(S(=O)(=O)c2ccccc2C(F)(F)F)CC1` [Example 64, 4-Hydroxy-1-(2-trifluoromethyl-benzenesulfonyl)-piperidine-4-carboxylic acid (4-trifluoromethoxy-phenyl)-amide] the figure was 150 nM.
With `CC(C)(C)c1ccc(NC(=O)C2(O)CCN(C(=O)c3ccc(F)cc3C(F)(F)F)CC2)cc1` [Example 42, 1-(4-Fluoro-2-trifluoromethyl-benzoyl)-4-hydroxy-piperidine-4-carboxylic acid (4-tert-butyl-phenyl)-amide] the figure was 600 nM.
